Assay results published in patent publication US8119695B2, “Compounds and methods for treating breast cancer and other diseases” (City of Hope, priority 2003, dated 2012).

What was measured:
Type in all cases: cell-based
ERRα (GAL-ERRa) = assay: MH100x4 luciferase reporter with GAL-ERRa; set-up: Reporter Activity: unit not given here
Excerpt: (§1) MH100x4 is a luciferase reporter with four copies of a GAL4 […] response element. GAL-L refers to the ligand-binding domain of the indicated receptor fused to the C-terminus of the GAL4 DNA binding domain.

ERRγ (GAL-ERRg) = assay: MH100x4 luciferase reporter with GAL-ERRg; set-up: Reporter Activity: unit not given here; settings: for inhibition of the activity of ERRγ: result in words
Excerpt: as §1

ERRβ (GAL-L-ERRb) = biological target: T1, ERRβ (GAL-L-ERRb) (Homo sapiens, UniProt O95718); assay: MH100x4 luciferase reporter with GAL-L-ERRb; set-up: Reporter Activity: unit not given here; settings: for inhibition of the activity of ERRβ: result in words
T1 construct: expressed in transfected cells
T1 sequence (O95718 208-432 limits assumed): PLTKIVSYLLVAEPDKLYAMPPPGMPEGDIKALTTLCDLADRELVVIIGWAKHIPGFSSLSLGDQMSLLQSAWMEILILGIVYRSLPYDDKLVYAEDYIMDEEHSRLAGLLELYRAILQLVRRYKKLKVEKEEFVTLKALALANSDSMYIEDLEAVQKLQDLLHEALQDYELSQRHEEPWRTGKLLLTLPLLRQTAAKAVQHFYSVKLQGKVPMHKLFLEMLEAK
Excerpt: as §1

MH100x4 = MH100x4 luciferase reporter without receptor; settings: Table 2, dose 5 (unit not given); for Reporter Activity: None 0.49; for Fold Activation: None 1.00
Excerpt: as §1

[1] = Table 2, dose 5 (unit not given), None 1.00
[2] = Table 2, dose 5 (unit not given), None 8.54
[3] = Table 2, dose 5 (unit not given), None 1.25
[4] = Table 2, dose 5 (unit not given), None 1.44
[5] = Table 3, dose 2.5 (unit not given), None 1
[6] = Table 3, dose 2.5 (unit not given), None 8.18
[7] = Table 3, dose 2.5 (unit not given), None 2.2
[8] = Table 3, dose 2.5 (unit not given), None 2.38

Row | Fold Activation (ERRα (GAL-ERRa); [1]) | Reporter Activity (ERRα (GAL-ERRa); [2]) | Fold Activation (ERRγ (GAL-ERRg); [1]) | Reporter Activity (ERRγ (GAL-ERRg); [3]) | Fold Activation (ERRβ (GAL-L-ERRb); [1]) | Reporter Activity (ERRβ (GAL-L-ERRb); [4]) | Reporter Activity (MH100x4) | Fold Activation (MH100x4) | inhibition of the activity of ERRγ (ERRγ (GAL-ERRg)) | Fold Activation (ERRβ (GAL-L-ERRb); [5]) | Reporter Activity (ERRβ (GAL-L-ERRb); [8]) | inhibition of the activity of ERRβ (ERRβ (GAL-L-ERRb)) | SMILES | Fold Activation (ERRα (GAL-ERRa); [5]) | Reporter Activity (ERRα (GAL-ERRa); [6]) | Fold Activation (ERRγ (GAL-ERRg); [5]) | Reporter Activity (ERRγ (GAL-ERRg); [7])
1 | 0.66 | 5.63 | 0.91 | 1.14 | 0.49 | 0.71 | 0.35 | 0.71 | – | – | – | – | CCC(=C(CC)c1ccc(O)c(C=C(C)C)c1)c1ccc(O)cc1 [DY16] | – | – | – | –
2 | 0.75 | 6.39 | 0.81 | 1.01 | 0.70 | 1.01 | 0.35 | 0.71 | – | – | – | – | C=CCOc1ccc(C(CC)=C(CC)c2ccc(OCC=C)cc2)cc1 [DY20] | – | – | – | –
3 | 0.62 | 5.27 | 0.82 | 1.02 | 0.58 | 0.84 | 0.37 | 0.76 | – | – | – | – | CCC(=C(CC)c1ccc(Oc2cccc(C=O)c2)cc1)c1ccc(O)cc1 [DY19] | – | – | – | –
4 | 0.61 | 5.18 | 0.73 | 0.91 | 0.53 | 0.76 | 0.39 | 0.80 | – | – | – | – | CCC(=C(CC)c1ccc(O)c(C(C)C)c1)c1ccc(O)cc1 [DY17] | – | – | – | –
5 | 0.51 | 4.34 | 0.57 | 0.71 | 0.45 | 0.65 | 0.31 | 0.63 | – | – | – | – | C=CCOc1ccc(C(CC)=C(CC)c2ccc(O)c(CC=C)c2)cc1 [DY21] | – | – | – | –
6 | – | – | – | – | – | – | – | – | inhibit the activity | 0.08 | 0.2 | inhibit the activity | CC/C(=C(/c1ccc(OCCN(C)C)cc1)c1ccc(OC(C)=O)cc1)c1ccccc1 [DY28, (E,Z)-4-{1-[4-(2-dimethylamino-ethoxy)-phenyl]-2-phenyl-but-1-enyl}-phenyl acetate] | 0.99 | 8.08 | 0.11 | 0.25
7 | – | – | – | – | – | – | – | – | inhibit the activity | 0.14 | 0.34 | inhibit the activity | CC(C)/C(=C(\c1ccc(O)cc1)c1ccc(OCN(C)C)cc1)c1ccccc1 [DY35, (Z)-4-[1-(4-Dimethylaminomethoxy-phenyl)-3-methyl-2-phenyl-but-1-enyl]-phenol] | 0.78 | 6.38 | 0.15 | 0.34
8 | – | – | – | – | – | – | – | – | – | – | – | – | CN(C)CCOc1ccc(/C(=C(/CCCl)c2ccccc2)c2ccc(O)cc2)cc1 [DY33] | – | – | – | 0.58
9 | – | – | – | – | – | – | – | – | – | 1.01 | 2.4 | – | CCC(=C(c1ccc(OC2CCCCO2)cc1)c1ccc(OC2CCCCO2)cc1)c1ccccc1 (stereo not drawn) [DY26] | 1.15 | 9.38 | 0.99 | 2.17

Row | SMILES | Fold Activation (ERRα (GAL-ERRa); [1]) | Reporter Activity (ERRα (GAL-ERRa); [2]) | Fold Activation (ERRγ (GAL-ERRg); [1]) | Reporter Activity (ERRγ (GAL-ERRg); [3]) | Fold Activation (ERRβ (GAL-L-ERRb); [1]) | Reporter Activity (ERRβ (GAL-L-ERRb); [4]) | Reporter Activity (MH100x4) | Fold Activation (MH100x4) | inhibition of the activity of ERRγ (ERRγ (GAL-ERRg)) | Fold Activation (ERRβ (GAL-L-ERRb); [5]) | Reporter Activity (ERRβ (GAL-L-ERRb); [8]) | inhibition of the activity of ERRβ (ERRβ (GAL-L-ERRb)) | Fold Activation (ERRα (GAL-ERRa); [5]) | Reporter Activity (ERRα (GAL-ERRa); [6]) | Fold Activation (ERRγ (GAL-ERRg); [5]) | Reporter Activity (ERRγ (GAL-ERRg); [7])
10 | CCCCCCCCCCCCOc1ccc(/C(CC)=C(\CC)c2ccc(O)cc2)cc1 [DY14] | 1.01 | 8.63 | 1.10 | 1.38 | 0.96 | 1.38 | – | – | – | – | – | – | – | – | – | –
